For data set [1], the system named is Human normal fibroblast cell line (WI-38). The experiment in a line: cells. It counts as cell-based. Particulars: cytotoxicity, WI-38 human fibroblasts, Table 3. Here is the method:
The cytotoxicity of tested compounds was evaluated in parallel on a Human normal fibroblast cell line (WI-38) cultivated in a humidified atmosphere with 5% CO2 at 37° C. Human normal fibroblast cell line (WI-38) was cultivated in DMEM medium (Life Technologies) containing 4 mM L-glutamine, 1 mM sodium pyruvate supplemented with 10% fetal bovine serum (Sigma) and penicillin-streptomycin (100 UI/mL).
(§1) Suramine (a commercial anti-trypanosomal drug) and camptothecin were used as positive controls. Stock solutions of compounds to be tested were prepared at a concentration of 10 mg/mL in DMSO. The solutions were further diluted in medium (described in 1.1) to give 0.1 mg/mL stock solutions. Extracts and compounds were tested in eight serial three-fold dilutions (final concentration range: 50-0.02 mg/L) in 96-well microliter plates. All tests were performed at least in duplicate.

Data set [2] can be described thus: In vivo acute toxicity test (highest tolerated dose). Also noted: species or system NMRI mice. To be noted: for acute toxicity: intraperitoneally every 2 hours, 10-15-25-50 mg/kg, monitored 48 h. The source says: (§2) NMRI mice (6-8 weeks of age) obtained from Envigo Laboratories (The Netherlands) were used. All in vivo experiments performed were approved by the Ethical Committee for animals use at the Health Sciences Sector of the Catholic University of Louvain (2017/UCL/MD/017).
The assessment of the highest tolerated dose was based on a DNDi protocol by Loset J.-R. et al. (V. Drug Screening for Kinetoplastids Diseases. A Training Manual for Screening in Neglected Diseases-DNDi, 2009) and adapted by Beaufay C. et al. (Malar J., 2017, 16, doi:10.1186/s12936-017-2054-y). Briefly, 3-O-cis/trans-p-coumaroyltormentic acid isolated from fractions F-F9 obtained from a callus of Malus domestica Cox cultivar of example 1 above was given intraperitoneally every 2 hours to 2 mice using increasing doses: 10-15-25-50 mg/kg from stock solutions of 10 mg/mL. Mice were controlled for any health problem symptoms or behavioral changes and monitored for weight and hematocrit after each injection and every day during 48 h after administration. Main organs (heart, liver, spleen, lung and kidney) of treated mice were observed and weighed wet during autopsy. Control group received the vehicle, distilled water with 10% of tween 80-ethanol (7:3). The total injected dose was finally recorded and will ensure the non-toxicity of in vivo anti-trypanosomal test.

For data set [3], the system named is Trypanosoma brucei brucei bloodstream forms (strain 427). Kind of data set: In vitro antitrypanosomal activity on Tbb BSF. It counts as cell-based. How it is done:
Antiparasitic activities were evaluated in vitro on Trypanosoma brucei brucei bloodstream forms (strain 427) (Tbb BSF). Tbb BSF were cultured in vitro at 37° C. with 5% CO2 in HMI9 medium containing 10% heat-inactivated fetal bovine serum, […] ([…]) and L-cysteine ([…]).
as §1, with “In vitro tests were performed as previously described by Hoet S. et al. (Planta Med., 2004, 70, 407-413, doi:10.1055/s-2004-818967). Suramine” for “Suramine”

The subject of data set [4] is Trypanosoma brucei brucei. Kind of data set: In vivo anti-trypanosomal activity in infected mice. Set-up: species or system NMRI mice. To be noted: for survival of infected mice in comparison to the untreated group: 50 mg/kg/d i.p. day 3-7 post-infection, followed to day 19; for parasitemia: day 4 post-infection, 50 mg/kg/day intraperitoneally, 10^4 Tbb/mouse; for survival increase: day 12 post-infection, 50 mg/kg i.p. day 3-7.
Text: as §2
Mice were randomly divided into 6 mice per group for 3-O-cis/trans-p-coumaroyltormentic acid (mixture of cis and trans) and ursolic acid, 4 for positive control (Suramine) and 7 for the negative control, and were infested intraperitoneally with 10^4 Trypanosoma brucei brucei. All compounds were solubilized in the vehicle (water-tween 80-ethanol) and administered intraperitoneally. 3-O-cis/trans-p-coumaroyltormentic acid or ursolic acid (UA) were administered at 50 mg/kg at day 3 after infection with the parasite and then every day until day 7 post-infection. Suramine (0.5 mg/kg) was administered while vehicle was used as a negative control. From day 3 post infection, a drop of blood collected each day from mouse-tail was used to count parasitemia.

The next data set has as its system Trypanosoma cruzi. To be noted: review Isah et al. 2016; cited from earlier work.
For data set [5], the system named is Trypanosoma brucei brucei. Particulars: review Isah et al. 2016; cited from earlier work.
The test system of the next data set is MCR-5 cells. To be noted: cited from earlier work.

Like-named read-outs stand apart in the source and are kept apart here.

For “3β-trans/cis-p-coumaroyl-2α,19α-dihydroxy-urs-12-en-28-oic acid [3-O-cis/trans-p-coumaroyltormentic acid]”, the “WI38 (IC50 μg/mL)” value in data set [1] turned out to be 28.43 ± 0.79 µg/mL. Also, the IC50 in data set [1] (read-out: WI38 (IC50 μM)) is 44.8 ± 1.25 µM; in data set [3] (Tbb bloodstream forms strain 427, Table 3, read-out: Tbb (IC50 μM)), 0.75 ± 0.57 µM. The “total cumulative highest tolerated dose” value in data set [2] (mice, intraperitoneal, repeated injections) was 100 mg/kg. Also, the acute toxicity result in data set [2] (mice) was “no acute toxic symptom”; in data set [2] (mice, listed as 3-O-p-coumaroyl ester of tormentic acid), “no acute toxicity”. Besides, the “Tbb (IC50 μg/mL)” value in data set [3] (Tbb bloodstream forms strain 427, Table 3) stood at 0.48 ± 0.36 µg/mL. Besides, in data set [3] (in vitro, versus tormentic acid), the “anti-trypanosomal activity, times higher than that of tormentic acid” value is given as 10 times. Further, the “survival of infected mice in comparison to the untreated group” value is “significant increase” in data set [4] (listed as 3-O-p-coumaroyl ester of tormentic acid) and “significantly improved” in data set [4] (listed as esters). Besides, the parasitemia result in data set [4] is “significant decrease”. Besides, the survival increase in data set [4] turned out to be 33.3%.

Turning to `C[C@H]1[C@H](C)CC[C@]2(C(=O)O)CC[C@]3(C)C(=CC[C@@H]4[C@@]5(C)CC[C@H](O)C(C)(C)[C@@H]5CC[C@]43C)[C@H]12` [Ursolic acid], the IC50 worked out at 11.1 ± 0.22 µM in data set [1] (read-out: WI38 (IC50 μM)); 5.08 ± 0.1 µg/mL in data set [1] (read-out: WI38 (IC50 μg/mL)); 2.38 ± 0.24 µM in data set [3] (Trypanosoma brucei, Tbb bloodstream forms strain 427, Table 3, read-out: Tbb (IC50 μM)); 1.08 ± 0.11 µg/mL in data set [3] (Trypanosoma brucei, Tbb bloodstream forms strain 427, Table 3, read-out: Tbb (IC50 μg/mL)). Moreover, the “total cumulative highest tolerated dose” value in data set [2] (NMRI, mouse, in vivo, ip, 48 h) stood at 100 mg/kg. For the same compound, the acute toxicity entry in data set [2] (mice) was “no acute toxic symptom”. For the same compound, the “SI (Selectivity Index)” value in data set [3] (cytotoxicity in WI38 compared to Tbb) came to 4.8. For the same compound, in data set [4], the “survival of infected mice in comparison to the untreated group” value was “no significant difference”. The parasitemia entry in data set [4] was “did not show any effect”. In addition, the survival increase in data set [4] is listed as 16.7%.

For the compound tingenin, in the data set with Trypanosoma cruzi, the “IC50 against Trypanosoma cruzi” value is less than 0.25 µg/mL. Moreover, the “IC50 against Trypanosoma brucei brucei” value in data set [5] was less than 0.25 µg/mL. In addition, in the data set with MCR-5 cells, the “cytotoxicity IC50 on MCR-5 cells” value was 0.45 µg/mL.
